{"source": "paper PMC8705783", "about": "“The Effect of Conjugation with Octaarginine, a Cell-Penetrating Peptide on Antifungal Activity of Imidazoacridinone Derivative” (International Journal of Molecular Sciences, 2021)", "key": {"C. albicans ATCC 10231 [1]": {"tested_on": "C. albicans ATCC 10231", "assay": "microbe, parasite or virus in culture", "assay_type": "cell-based", "conditions": "Candida albicans, ATCC10231; minimal fungicidal concentration that kills 99% of cells; read-out: MFC", "description": "(§1) To establish the possible mode of action for Compound 1-R8, we have analysed the killing activity and determined minimal fungicidal concentrations (MFCs) (Table 4). Additionally, killing kinetics analysis against pathogenic C. albicans ATCC 10231 was performed (Figure 2).\n(§2) Minimum fungicidal concentrations (MFCs) were determined as described previously by spot assay. The MFC was determined as the lowest concentration of the test compound in which no recovery of microorganisms was observed."}, "C. glabrata DSM 11226": {"tested_on": "C. glabrata DSM 11226", "assay": "microbe, parasite or virus in culture", "assay_type": "cell-based", "conditions": "Nakaseomyces glabratus, DSM11226; minimal fungicidal concentration that kills 99% of cells; read-out: MFC", "description": "as §1, §2"}, "C. krusei DSM 6128": {"tested_on": "C. krusei DSM 6128", "assay": "microbe, parasite or virus in culture", "assay_type": "cell-based", "conditions": "Pichia kudriavzevii, DSM6128; minimal fungicidal concentration that kills 99% of cells; read-out: MFC", "description": "as §1, §2"}, "C. parapsilosis DSM 5784": {"tested_on": "C. parapsilosis DSM 5784", "assay": "microbe, parasite or virus in culture", "assay_type": "cell-based", "conditions": "Lodderomyces parapsilosis, DSM5784; minimal fungicidal concentration that kills 99% of cells; read-out: MFC", "description": "as §1, §2"}, "S. cerevisiae ATCC 9763": {"tested_on": "S. cerevisiae ATCC 9763", "assay": "Minimal fungicidal concentration, spot assay", "assay_type": "cell-based", "conditions": "Saccharomyces cerevisiae, ATCC9763; minimal fungicidal concentration that kills 99% of cells; read-out: MFC", "description": "as §1, §2"}, "C. albicans ATCC 10231 [2]": {"tested_on": "C. albicans ATCC 10231", "assay_type": "cell-based, Candida albicans", "description": "Killing kinetics analysis was performed as described previously. […] After an appropriate time of incubation, 10 μL was withdrawn and spread on YPG agar plates. The number of colony-forming units (CFUs) was determined after overnight incubation of the plates at 37 °C. The killing kinetics analysis was performed with the GraphPad Prism 8 software (GraphPad Software Inc., San Diego, CA, USA)."}, "human erythrocytes": {"tested_on": "human erythrocytes", "assay_type": "cell-based", "conditions": "30 min", "description": "Red blood cell concentrates were kindly provided by the Regional Centre for Blood Donation and Blood Treatment in Gdansk. The haemolytic activity determination was carried out by the serial dilution method according to the procedure described earlier. Human erythrocytes were suspended in a solution of saline to obtain a cell density of suspension 2 × l0^7 per mL. Suitable amounts of solutions of compounds diluted in DMSO were added to the cell suspension in tubes, incubated at 37 °C for 30 min, and then centrifuged (1700× g, 5 min, 4 °C). The concentration of haemoglobin in the supernatant after centrifugation of the erythrocytes suspension was determined by measuring the absorbance at wavelength λ = 540 nm (A540 ^sample). Control experiments with the same amount of DMSO were also performed (A540 ^DMSO). The maximum level of haemolysis was obtained after incubation of the cell suspension in the presence of 0.1% Triton X-100 (positive control, A540 ^0.1%Triton X−100). […] The EH50 values for each compound were calculated with GraphPad Prism 8 software. The EH50 is the interpolated concentration of compound, for which the A540 value is exactly 50% of the A540 value measured for the positive control sample. EH (%) was calculated as follows:EH (%) = ((A540 ^sample − A540 ^DMSO)/(A540 ^0.1%Triton X−100 − A540 ^0.9%NaCl)) × 100"}, "[3]": {"tested_on": "Candida albicans ATCC 10231", "assay": "microbe, parasite or virus in culture", "conditions": "ATCC10231, 24 h, pH 7"}, "[4]": {"tested_on": "Candida glabrata ATCC 90030", "assay": "microbe, parasite or virus in culture", "conditions": "Nakaseomyces glabratus, ATCC90030, 24 h, pH 7"}, "Candida krusei ATCC 6258": {"tested_on": "Candida krusei ATCC 6258", "assay": "microbe, parasite or virus in culture", "conditions": "Pichia kudriavzevii, ATCC6258, 24 h, pH 7"}, "[5]": {"tested_on": "Candida parapsilosis ATCC 22019", "assay": "microbe, parasite or virus in culture", "conditions": "Lodderomyces parapsilosis, ATCC22019, 24 h, pH 7"}, "[6]": {"tested_on": "Saccharomyces cerevisiae ATCC 9763", "assay": "microbe, parasite or virus in culture", "conditions": "ATCC9763, 24 h, pH 7"}}}
{"compound": "C[C@@H]1[C@H](O)[C@@H](C)/C=C/C=C/C=C/C=C/C=C/C=C/C=C/[C@H](O[C@@H]2O[C@H](C)[C@@H](O)[C@H](N)[C@@H]2O)C[C@@H]2O[C@](O)(C[C@@H](O)C[C@@H](O)[C@H](O)CC[C@@H](O)C[C@@H](O)CC(=O)O[C@H]1C)C[C@H](O)[C@H]2C(=O)O", "note": "[Amphotericin B]", "values": [{"measurement": "MFC", "setting": "C. albicans ATCC 10231 [1]", "result": 2, "unit": "µg/mL"}, {"measurement": "MFC", "setting": "C. glabrata DSM 11226", "result": 2, "unit": "µg/mL"}, {"measurement": "MFC", "setting": "C. krusei DSM 6128", "result": 2, "unit": "µg/mL"}, {"measurement": "MFC", "setting": "C. parapsilosis DSM 5784", "result": 2, "unit": "µg/mL"}, {"measurement": "MFC", "setting": "S. cerevisiae ATCC 9763", "result": 2, "unit": "µg/mL"}, {"measurement": "mortality of the microbial population", "setting": "C. albicans ATCC 10231 [2]", "result": "about 60%"}, {"measurement": "EH50", "setting": "human erythrocytes", "result": "3.46 ± 0.15", "unit": "µg/mL"}, {"measurement": "MIC90", "setting": "[3]", "result": 0.5, "unit": "µg/mL"}, {"measurement": "MIC90", "setting": "[4]", "result": 1, "unit": "µg/mL"}, {"measurement": "MIC90", "setting": "Candida krusei ATCC 6258", "result": 1, "unit": "µg/mL"}, {"measurement": "MIC90", "setting": "[5]", "result": 1, "unit": "µg/mL"}, {"measurement": "MIC90", "setting": "[6]", "result": 0.5, "unit": "µg/mL"}]}
